Measured values taken from ChEMBL document CHEMBL1146280, “New competitive inhibitors of cytosolic (NADH-dependent) rabbit muscle glycerophosphate dehydrogenase” (Bioorg Med Chem Lett, 2007).

Key:
[1] = species on record: Oryctolagus cuniculus; test: Inhibition of rabbit muscle NADH-dependent cytosolic glycerophosphate dehydrogenase
[2] = Inhibition of class I FBA; set-up: species or system Homo sapiens
[3] = Inhibition of class II FBA

Compound	Ki [1]	Ki [2]	Ki [3]
O=C(CC(O)P(=O)(O)O)NO (stereo not drawn)	40 µM	180 µM	418 µM
O=C(COP(=O)(O)O)NO [PHOSPHOGLYCOLOHYDROXAMATE]	10 µM	1 µM	0.01 µM
O=C(CCP(=O)(O)O)NO	6 µM	> 500 µM	145 µM
N/C(COP(=O)(O)O)=N/O	100 µM	> 1000 µM	2.3 µM
NC(CC(=O)NO)P(=O)(O)O (stereo not drawn)	> 500 µM	9000 µM	3000 µM
NNC(=O)COP(=O)(O)O [PHOSPHORIC ACID MONOHYDRAZINOCARBONYLMETHYL ESTER]	> 500 µM	370 µM	0.34 µM
